Assay results: patent US10703757B2, “Compounds and methods for CDK8 modulation and indications therefor” (Plexxikon Inc., priority 2016, dated 2020)

Columns and labels:
[1] = system: CDK8 (phosphorylation of STAT1 at serine 727 in A549 cells); assay: Cell based Phospho-STAT1 assay (IFNγ-stimulated A549 cells, AlphaLISA); conditions: Homo sapiens, A549, A549 cells, phospho-STAT1 after IFNγ stimulation
How it was run: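 A549 cells given serial compound dilutions for 1 h at 37 °C, then stimulated with IFNγ at 10 ng/mL final for 30 min. Lysate STAT1 Ser727 phosphorylation measured by AlphaLISA; % inhibition vs stimulated/unstimulated DMSO controls, IC50 by nonlinear regression.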

[2] = system: CDK8 (TCF/LEF luciferase reporter in HCT116 cells); assay: Cell based TCF/LEF reporter assay (HCT116+TCF/LEF luciferase); conditions: Homo sapiens, HCT-116, 24 h
How it was run: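 HCT116 cells stably carrying a TCF/LEF-luciferase reporter (endogenous mutant β-catenin), seeded overnight, then exposed to serial compound dilutions for 24 h at 37 °C. Luminescence normalized to CellTiter-Fluor viability signal. % inhibition relative to DMSO and 10 uM CCT251545 controls, with IC50 from nonlinear regression.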

| Structure (SMILES) | IC50 [1] [nM] | IC50 [2] [nM] |
| --- | --- | --- |
| CC(C)(O)Cn1cc(-c2ccc(-c3cnn4ccnc(C5CCC(C#N)CC5)c34)nc2)cn1 (stereo not shown) [Compound P-0458, (1s,4s)-4-(3-(5-(1-(2-hydroxy-2-methylpropyl)-1H-pyrazol-4-yl)pyridin-2-yl)pyrazolo[1,5-a]pyrazin-4-yl)cyclohexane-1-carbonitrile] | 0.1 to 100 | 0.1 to 100 |
| Cn1cc(-c2ccc(-c3cnn4cccc(N5C6CCC5CC(C#N)C6)c34)cc2)cn1 (stereo not shown) [Compound P-0248, 8-(3-(4-(1-methyl-1H-pyrazol-4-yl)phenyl)pyrazolo[1,5-a]pyridin-4-yl)-8-azabicyclo[3.2.1]octane-3-carbonitrile] | 0.1 to 100 | 0.1 to 100 |
| N#CC1CC=C(c2c(-c3ccc4[nH]c(=O)[nH]c4c3)cnc3[nH]ccc23)CC1 (stereo not shown) [Compound P-0206, 4-(5-(2-oxo-2,3-dihydro-1H-benzo[d]imidazol-5-yl)-1H-pyrrolo[2,3-b]pyridin-4-yl)cyclohex-3-ene-1-carbonitrile] | 0.1 to 100 | 0.1 to 100 |
| N#CC1CC=C(c2c(-c3ccc4c(c3)C(=O)NC4)cnc3[nH]ccc23)CC1 (stereo not shown) [Compound P-0207, 4-(5-(3-oxoisoindolin-5-yl)-1H-pyrrolo[2,3-b]pyridin-4-yl)cyclohex-3-ene-1-carbonitrile] | 1000 to 10000 | 100 to 1000 |
| CCCS(=O)(=O)Nc1ccc2cc(-c3cnn4ccnc(C5CCC(C#N)CC5)c34)ccc2c1 (stereo not shown) [Compound P-0061, N-(6-(4-((1s,4s)-4-cyanocyclohexyl)pyrazolo[1,5-a]pyrazin-3-yl)naphthalen-2-yl)propane-1-sulfonamide] | 0.1 to 100 | 0.1 to 100 |
| CS(=O)(=O)Nc1ccc2cc(-c3cnn4ccnc(C5=CCC(C#N)CC5)c34)ccc2c1 (stereo not shown) [Compound P-0166, N-(6-(4-(4-cyanocyclohex-1-en-1-yl)pyrazolo[1,5-a]pyrazin-3-yl)naphthalen-2-yl)methanesulfonamide] | 0.1 to 100 | 0.1 to 100 |
| Cn1cc(-c2ccc(-c3cnn4cccc(C#CC5(O)CCC5)c34)cc2)cn1 [Compound P-0310, 1-((3-(4-(1-methyl-1H-pyrazol-4-yl)phenyl)pyrazolo[1,5-a]pyridin-4-yl)ethynyl)cyclobutan-1-ol] | 0.1 to 100 | 0.1 to 100 |
| Cc1cc(-c2ccc(-c3cnn4cccc(C#CC(C)(C)O)c34)cc2)n[nH]1 [Compound P-0234, 2-methyl-4-(3-(4-(5-methyl-1H-pyrazol-3-yl)phenyl)pyrazolo[1,5-a]pyridin-4-yl)but-3-yl-2-ol] | 100 to 1000 | 0.1 to 100 |
| N#CC1CC=C(c2nccn3ncc(-c4ccc(-c5cnn(CC(N)=O)c5)cc4)c23)CC1 (stereo not shown) [Compound P-0027, 2-(4-(4-(4-(4-cyanocyclohex-1-en-1-yl)pyrazolo[1,5-a]pyrazin-3-yl)phenyl)-1H-pyrazol-1-yl)acetamide] | 0.1 to 100 | 0.1 to 100 |
| CC(C)(C#Cc1nccn2ncc(-c3ccc(-c4cnn(CCC#N)c4)cc3)c12)C(N)=O [Compound P-0004, 4-(3-(4-(1-(2-cyanoethyl)-1H-pyrazol-4-yl)phenyl)pyrazolo[1,5-a]pyrazin-4-yl)-2,2-dimethylbut-3-ynamide] | 0.1 to 100 | 0.1 to 100 |
| Cc1cc(C#N)cc(-c2ccc(-c3cnn4cccc(C#CC(C)(C)O)c34)cc2)c1 [Compound P-0235, 4′-(4-(3-hydroxy-3-methylbut-1-yn-1-yl)pyrazolo[1,5-a]pyridin-3-yl)-5-methyl-[1,1′-biphenyl]-3-carbonitrile] | 100 to 1000 | 100 to 1000 |
| CC(C)(O)C#Cc1cccn2ncc(-c3ccc(-c4cnoc4)cc3)c12 [Compound P-0228, 4-(3-(4-(isoxazol-4-yl)phenyl)pyrazolo[1,5-a]pyridin-4-yl)-2-methylbut-3-yn-2-ol] | 1000 to 10000 | 1000 to 10000 |
| Cn1cc(-c2ccc(-c3cnn4cccc(C#CC(C)(C)N)c34)cc2)cn1 [Compound P-0309, 2-methyl-4-(3-(4-(1-methyl-1H-pyrazol-4-yl)phenyl)pyrazolo[1,5-a]pyridin-4-yl)but-3-yn-2-amine] | 0.1 to 100 | 100 to 1000 |
| CN(C)CCn1cc(-c2ccc(-c3cnn4ccnc(C5=CCC(C#N)CC5)c34)cc2)cn1 (stereo not shown) [Compound P-0047, 4-[3-[4-[1-(2-dimethylaminoethyl)pyrazol-4-yl]phenyl]pyrazolo[1,5-a]pyrazin-4-yl]cyclohex-3-ene-1-carbonitrile] | 0.1 to 100 | 0.1 to 100 |
| NC(=O)C1CC=C(c2nccn3ncc(-c4ccc(OCCN5CCOCC5)cc4)c23)CC1 (stereo not shown) [Compound P-0129, 4-(3-(4-(2-morpholino-ethoxy)phenyl)pyrazolo[1,5-a]pyrazin-4-yl)cyclohex-3-ene-1-carboxamide] | 0.1 to 100 | 0.1 to 100 |
| Cc1nn(C)cc1-c1ccc(-c2cnn3cccc(C#CC(C)(C)O)c23)cc1 [Compound P-0311, 4-(3-(4-(1,3-dimethyl-1H-pyrazol-4-yl)phenyl)pyrazolo[1,5-a]pyridin-4-yl)-2-methylbut-3-yn-2-ol] | 0.1 to 100 | 100 to 1000 |

Continued, values first:

| IC50 [1] [nM] | IC50 [2] [nM] | Structure (SMILES) |
| --- | --- | --- |
| 0.1 to 100 | 0.1 to 100 | N#CC1CC=C(c2cccn3ncc(-c4ccc5ncccc5c4)c23)CC1 (stereo not shown) [Compound P-0127, 4-(3-(quinolin-6-yl)pyrazolo[1,5-a]pyridin-4-yl)cyclohex-3-ene-1-carbonitrile] |
| 0.1 to 100 | 0.1 to 100 | COc1ccc(-c2cnn3ccnc(C4=CCC(C#N)CC4)c23)cc1 (stereo not shown) [Compound P-0088, 4-(3-(4-methoxyphenyl)pyrazolo[1,5-a]pyrazin-4-yl)cyclohex-3-ene-1-carbonitrile] |
| 0.1 to 100 | 0.1 to 100 | N#CC1CC=C(c2nccn3ncc(-c4ccc(-c5cnn(CC6CC6)c5)cc4)c23)CC1 (stereo not shown) [Compound P-0034, 4-(3-(4-(1-(cyclopropylmethyl)-1H-pyrazol-4-yl)phenyl)pyrazolo[1,5-a]pyrazin-4-yl)cyclohex-3-ene-1-carbonitrile] |
| 1000 to 10000 | 1000 to 10000 | N#CC1CCN(c2cccn3ncc(-c4ccc(S(=O)(=O)N5CCOCC5)cc4)c23)CC1 [Compound P-0255, 1-(3-(4-(morpholino-sulfonyl)phenyl)pyrazolo[1,5-a]pyridin-4-yl)piperidine-4-carbonitrile] |
| 0.1 to 100 | 0.1 to 100 | COc1ccc2cc(-c3cnn4cccc(N5CCC6(CCNC6=O)CC5)c34)ccc2n1 [Compound P-0167, 8-(3-(2-methoxyquinolin-6-yl)pyrazolo[1,5-a]pyridin-4-yl)-2,8-diazaspiro[4.5]decan-1-one] |
| 0.1 to 100 | 0.1 to 100 | N#CC1CC=C(c2nccn3ncc(-c4ccc(N5CCOCC5)c(F)c4)c23)CC1 (stereo not shown) [Compound P-0102, 4-(3-(3-fluoro-4-morpholinophenyl)pyrazolo[1,5-a]pyrazin-4-yl)cyclohex-3-ene-1-carbonitrile] |
| 0.1 to 100 | 0.1 to 100 | N#CC1CCN(c2cccn3ncc(-c4ccc(-n5cccn5)cc4)c23)CC1 [Compound P-0363, 1-(3-(4-(1H-pyrazol-1-yl)phenyl)pyrazolo[1,5-a]pyridin-4-yl)piperidine-4-carbonitrile] |
| 0.1 to 100 | 0.1 to 100 | N#CC1CCC(c2cccn3ncc(-c4ccc(N5CCOCC5)nc4)c23)CC1 (stereo not shown) [Compound P-0141, 4-(3-(6-morpholinopyridin-3-yl)pyrazolo[1,5-a]pyridin-4-yl)cyclohexane-1-carbonitrile] |
| 0.1 to 100 | 100 to 1000 | N#CC1CC=C(c2nccn3ncc(-c4ccc(C(N)=O)c(F)c4)c23)CC1 (stereo not shown) [Compound P-0105, 4-(4-(4-cyanocyclohex-1-en-1-yl)pyrazolo[1,5-a]pyrazin-3-yl)-2-fluorobenzamide] |
| 1000 to 10000 | 1000 to 10000 | N#CC1CCN(c2cccn3ncc(-c4cccc(OCC(F)(F)F)c4)c23)CC1 [Compound P-0251, 1-(3-(3-(2,2,2-trifluoro-ethoxy)phenyl)pyrazolo[1,5-a]pyridin-4-yl)piperidine-4-carbonitrile] |
| 0.1 to 100 | 0.1 to 100 | Cn1ncc2cc(-c3cnn4cccc(C5CCC(C#N)CC5)c34)ccc21 (stereo not shown) [Compound P-0337, 4-(3-(1-methyl-1H-indazol-5-yl)pyrazolo[1,5-a]pyridin-4-yl)cyclohexane-1-carbonitrile] |
| 0.1 to 100 | 0.1 to 100 | N#CC1CC=C(c2nccn3ncc(-c4ccc(-c5cnn(C(F)F)c5)cc4)c23)CC1 (stereo not shown) [Compound P-0012, 4-(3-(4-(1-(difluoromethyl)-1H-pyrazol-4-yl)phenyl)pyrazolo[1,5-a]pyrazin-4-yl)cyclohex-3-ene-1-carbonitrile] |
| 0.1 to 100 | 100 to 1000 | N#CC1CC=C(c2cccn3ncc(-c4ccc5cccnc5c4)c23)CC1 (stereo not shown) [Compound P-0124, 4-(3-(quinolin-7-yl)pyrazolo[1,5-a]pyridin-4-yl)cyclohex-3-ene-1-carbonitrile] |
| 0.1 to 100 | 0.1 to 100 | N#CC1CC=C(c2cccn3ncc(-c4ccc(OCCCN5CCCCC5)cc4)c23)CC1 (stereo not shown) [Compound P-0180, 4-(3-(4-(3-(piperidin-1-yl)propoxy)phenyl)pyrazolo[1,5-a]pyridin-4-yl)cyclohex-3-ene-1-carbonitrile] |
| 0.1 to 100 | 0.1 to 100 | COc1ccc2cc(-c3cnn4cccc(C5=CCC(C#N)CC5)c34)ccc2n1 (stereo not shown) [Compound P-0242, 4-(3-(2-methoxyquinolin-6-yl)pyrazolo[1,5-a]pyridin-4-yl)cyclohex-3-ene-1-carbonitrile] |
| 100 to 1000 | 100 to 1000 | COc1ccc(-c2cnn3ccnc(C4=CCC(C#N)CC4)c23)cn1 (stereo not shown) [Compound P-0087, 4-(3-(6-methoxypyridin-3-yl)pyrazolo[1,5-a]pyrazin-4-yl)cyclohex-3-ene-1-carbonitrile] |
